Organism: Rattus norvegicus
Test: Open TG-GATES - Regimen: Daily Repeat
Type: toxicity, organism-based, Sprague-Dawley
Design: regimen Daily Repeat, gender Male, age 6 weeks
Settings: in vivo, po, 5 mg/kg, route gavage, dose level Middle; for APTT / Bas / Eos / Fbg / Hb / Ht / Lym / MCH / MCHC / MCV / Mono / Neu / PT / Plat / RBC / Ret / WBC: tissue Blood; for KIDNEY_L / KIDNEY_R / KIDNEY_TOTAL: tissue Kidney; for LIVER: tissue Liver; for ALP / ALT / AST / BUN / CRE / Ca / Cl / DBIL / GLC / IP / K / LDH / Na / PL / RALB / TBIL / TC / TG / TP / gamma-GTP: tissue Plasma

O=P1(N(CCCl)CCCl)NCCCO1 (stereo not drawn) [CYCLOPHOSPHAMIDE ANHYDROUS]
TERMINAL_BW (72 h, time 3 day): 226.6 g | APTT (72 h, time 3 day): 21.9 s | Bas (72 h, time 3 day): 0% | Eos (72 h, time 3 day): 1% | Fbg (72 h, time 3 day): 272.4 mg/dL | Hb (72 h, time 3 day): 13 g/dL | Ht (72 h, time 3 day): 39.1% | Lym (72 h, time 3 day): 81.6% | MCH (72 h, time 3 day): 21.9 pg | MCHC (72 h, time 3 day): 33.2% | MCV (72 h, time 3 day): 65.8 fL | Mono (72 h, time 3 day): 2.4% | Neu (72 h, time 3 day): 14% | PT (72 h, time 3 day): 16.9 s | Plat (72 h, time 3 day): 114.8 x10_4/uL | RBC (72 h, time 3 day): 593 x10_4/ul | Ret (72 h, time 3 day): 6.3% | WBC (72 h, time 3 day): 54.2 x10_2/uL | KIDNEY_L (72 h, time 3 day): 1 g | KIDNEY_R (72 h, time 3 day): 1 g | KIDNEY_TOTAL (72 h, time 3 day): 2 g | LIVER (72 h, time 3 day): 10.7 g | ALP (72 h, time 3 day): 1691.2 IU/L | ALT (72 h, time 3 day): 40.6 IU/L | AST (72 h, time 3 day): 68.6 IU/L | BUN (72 h, time 3 day): 17 mg/dL | CRE (72 h, time 3 day): 0.2 mg/dL | Ca (72 h, time 3 day): 10.9 mg/dL | Cl (72 h, time 3 day): 104.6 meq/L | DBIL (72 h, time 3 day): 0.002 mg/dL | GLC (72 h, time 3 day): 182.8 mg/dL | IP (72 h, time 3 day): 8 mg/dL | K (72 h, time 3 day): 4.1 meq/L | LDH (72 h, time 3 day): 172 IU/L | Na (72 h, time 3 day): 141.6 meq/L | PL (72 h, time 3 day): 149.6 mg/dL | RALB (72 h, time 3 day): 3 g/dL | TBIL (72 h, time 3 day): 0.022 mg/dL | TC (72 h, time 3 day): 75.4 mg/dL | TG (72 h, time 3 day): 94.4 mg/dL | TP (72 h, time 3 day): 5.5 g/dL | gamma-GTP (72 h, time 3 day): 1 IU/L | TERMINAL_BW ([…], time 7 day): 245.9 g | TERMINAL_BW ([…], time 14 day): 288.6 g | TERMINAL_BW ([…], time 28 day): 359.3 g | APTT ([…], time 7 day): 22 s | Bas ([…], time 7 day): 0% | Eos ([…], time 7 day): 0.6% | Fbg ([…], time 7 day): 273.8 mg/dL | Hb ([…], time 7 day): 13.5 g/dL | Ht ([…], time 7 day): 40.4% | Lym ([…], time 7 day): 82.4% | MCH ([…], time 7 day): 20.9 pg | MCHC ([…], time 7 day): 33.4% | MCV ([…], time 7 day): 62.7 fL | Mono ([…], time 7 day): 3.2% | Neu ([…], time 7 day): 12.6% | PT ([…], time 7 day): 15.8 s | Plat ([…], time 7 day): 133.9 x10_4/uL | RBC ([…], time 7 day): 644.2 x10_4/ul | Ret ([…], time 7 day): 5.3% | WBC ([…], time 7 day): 36.4 x10_2/uL | APTT ([…], time 14 day): 22 s | Bas ([…], time 14 day): 0% | Eos ([…], time 14 day): 1.4% | Fbg ([…], time 14 day): 305.8 mg/dL | Hb ([…], time 14 day): 13.8 g/dL | Ht ([…], time 14 day): 40.5% | Lym ([…], time 14 day): 75.2% | MCH ([…], time 14 day): 20.4 pg | MCHC ([…], time 14 day): 34% | MCV ([…], time 14 day): 59.9 fL | Mono ([…], time 14 day): 4.6% | Neu ([…], time 14 day): 17.2% | PT ([…], time 14 day): 14.6 s | Plat ([…], time 14 day): 116.3 x10_4/uL | RBC ([…], time 14 day): 676.8 x10_4/ul | Ret ([…], time 14 day): 3.5% | WBC ([…], time 14 day): 27.7 x10_2/uL | APTT ([…], time 28 day): 21.7 s | Bas ([…], time 28 day): 0% | Eos ([…], time 28 day): 1.4% | Fbg ([…], time 28 day): 308 mg/dL | Hb ([…], time 28 day): 14.5 g/dL | Ht ([…], time 28 day): 42.5% | Lym ([…], time 28 day): 73% | MCH ([…], time 28 day): 19.3 pg | MCHC ([…], time 28 day): 34.3% | MCV ([…], time 28 day): 56.5 fL | Mono ([…], time 28 day): 3.6% | Neu ([…], time 28 day): 20.8% | PT ([…], time 28 day): 16 s | Plat ([…], time 28 day): 110.7 x10_4/uL | RBC ([…], time 28 day): 752.2 x10_4/ul | Ret ([…], time 28 day): 3% | WBC ([…], time 28 day): 35.5 x10_2/uL | KIDNEY_L ([…], time 7 day): 1 g | KIDNEY_R ([…], time 7 day): 1 g | KIDNEY_TOTAL ([…], time 7 day): 2 g | KIDNEY_L ([…], time 14 day): 1.2 g | KIDNEY_R ([…], time 14 day): 1.2 g | KIDNEY_TOTAL ([…], time 14 day): 2.3 g | KIDNEY_L ([…], time 28 day): 1.3 g | KIDNEY_R ([…], time 28 day): 1.3 g | KIDNEY_TOTAL ([…], time 28 day): 2.6 g | LIVER ([…], time 7 day): 10.8 g | LIVER ([…], time 14 day): 12.3 g | LIVER ([…], time 28 day): 14.6 g | ALP ([…], time 7 day): 1412.8 IU/L | ALT ([…], time 7 day): 38.2 IU/L | AST ([…], time 7 day): 65 IU/L | BUN ([…], time 7 day): 18.8 mg/dL | CRE ([…], time 7 day): 0.2 mg/dL | Ca ([…], time 7 day): 11 mg/dL | Cl ([…], time 7 day): 105.6 meq/L | DBIL ([…], time 7 day): 0 mg/dL | GLC ([…], time 7 day): 180.4 mg/dL | IP ([…], time 7 day): 6.8 mg/dL | K ([…], time 7 day): 3.9 meq/L | LDH ([…], time 7 day): 130 IU/L | Na ([…], time 7 day): 142.8 meq/L | PL ([…], time 7 day): 141.6 mg/dL | RALB ([…], time 7 day): 2.9 g/dL | TBIL ([…], time 7 day): 0.016 mg/dL | TC ([…], time 7 day): 74.6 mg/dL | TG ([…], time 7 day): 115.2 mg/dL | TP ([…], time 7 day): 5.5 g/dL | gamma-GTP ([…], time 7 day): 1.4 IU/L | ALP ([…], time 14 day): 1134.4 IU/L | ALT ([…], time 14 day): 36.6 IU/L | AST ([…], time 14 day): 57.2 IU/L | BUN ([…], time 14 day): 17.2 mg/dL | CRE ([…], time 14 day): 0.2 mg/dL | Ca ([…], time 14 day): 10.6 mg/dL | Cl ([…], time 14 day): 108.6 meq/L | DBIL ([…], time 14 day): 0 mg/dL | GLC ([…], time 14 day): 171 mg/dL | IP ([…], time 14 day): 7.1 mg/dL | K ([…], time 14 day): 4 meq/L | LDH ([…], time 14 day): 148.8 IU/L | Na ([…], time 14 day): 143.6 meq/L | PL ([…], time 14 day): 150.4 mg/dL | RALB ([…], time 14 day): 3 g/dL | TBIL ([…], time 14 day): 0.016 mg/dL | TC ([…], time 14 day): 80.4 mg/dL | TG ([…], time 14 day): 129.2 mg/dL | TP ([…], time 14 day): 5.7 g/dL | gamma-GTP ([…], time 14 day): 1 IU/L | ALP ([…], time 28 day): 973.8 IU/L | ALT ([…], time 28 day): 34.4 IU/L | AST ([…], time 28 day): 57.8 IU/L | BUN ([…], time 28 day): 16.8 mg/dL | CRE ([…], time 28 day): 0.2 mg/dL | Ca ([…], time 28 day): 10.5 mg/dL | Cl ([…], time 28 day): 106.6 meq/L | DBIL ([…], time 28 day): 0.002 mg/dL | GLC ([…], time 28 day): 190.2 mg/dL | IP ([…], time 28 day): 6.5 mg/dL | K ([…], time 28 day): 3.8 meq/L | LDH ([…], time 28 day): 133 IU/L | Na ([…], time 28 day): 144 meq/L | PL ([…], time 28 day): 135.8 mg/dL | RALB ([…], time 28 day): 3.1 g/dL | TBIL ([…], time 28 day): 0.024 mg/dL | TC ([…], time 28 day): 68.8 mg/dL | TG ([…], time 28 day): 111.6 mg/dL | TP ([…], time 28 day): 5.9 g/dL | gamma-GTP ([…], time 28 day): 1.2 IU/L

From ChEMBL document CHEMBL3885861, “Open TG-GATES”
